Source: patent US20110300532A1, “CONTROL OF THE TOXICITY OF GOLD NANOPARTICLES” (priority 2009, published 2011)
Values joined by “and” are separate entries in the source; they are usually repeats but may differ in a detail not shown here. Identical values can stand only once. “Also recorded” adds a separate entry of the source. Like-named read-outs stand apart in the source and are kept apart here. Where a SMILES comes first, the peptide text is derived from it. The star is where a group is joined. Cbz = O=C(OCc1ccccc1)*; CH2F = FC*

How the values were obtained:
HeLa cells [1] = details: for cell survival: cells pretreated with antioxidant 3 hours, washed, post-treated with 100 μM Au1.4MS 48 hours
Protocol: A) untreated cells. B) cells treated with Au1.4MS for 48 hours. C) cells pretreated with antioxidant/reducing agent for 3 hours, washed and post-treated with Au1.4MS for 48 hours. D) Au1.4MS pre-treated with antioxidant/reducing agent for 3 hours, mixture added to cells for 48 hours. E) cells pre-treated with antioxidant/reducing agent for 3 hours, then added Au1.4MS and incubated for 48 hours. F) Antioxidant/reducing agent mixed with Au1.4MS and mixture immediately added to cells and incubated for 48 hours. G) cells incubated with antioxidant/reducing agent for 48 hours.
HeLa cells were plated in 96-well microtiter plates at initial densities of 2,000 in 100 μL and were incubated for 72 hours before adding reagents. Fresh medium containing nanoparticles and/or antioxidants (reducing agents) was added to each well and cells were incubated for another 48 hours. […] Antioxidants/Reducing agents were freshly prepared by dissolving the powders in H2O to 200 mM and further diluted in fresh cell culture medium to working concentration.

HeLa cells [2] = experiment: Flow cytometric determination of oxidative stress (CM-H2DCFDA); type: cell-based, human
Protocol: Applicant also studied the oxidative stress and mitochondrial damage induced by Au1.4MS nanoparticles. […] Applicant used 0.3% H2O2 as a positive control.
Flow cytometric determination of oxidative stress. HeLa cells were plated in 6-well plates at initial densities of 40,000 in 2 mL grown for 72 hours. Fresh medium containing nanoparticles (100 μM Au1.4MS, 1000 μM Au1.1GSH and Au15MS) was added to the cells and incubated for 0, 6, 12, 18, 24, 48 hours. All cell-material combinations were set up in triplicates. After the AuNP incubation, cells were trypsinized and rinsed with PBS. After rinsing cells were suspended in a buffer containing 5-(and-6)-chloromethyl-2′7′-dichlorodihydrofluorescein diacetate acetyl ester (CM-H2DCFDA) (Molecuar Probes/Invitrogen). Cells were incubated for 30 minutes at 37° C. as described by the manufacturer. Shortly, 50 μg CM-H2DCFDA powder was dissolved in 100 μL ethanol as stock solution and was kept in −20° C. For cell assays the stock solution was freshly diluted in PBS to a final working concentration of 2.5 μM. Cells incubated with 0.3% H2O2 for 30 minutes served as positive control. 20,000 cells were analysed using FACSCalibur or FACSCanto flow cytometers and CELL-Quest software (Becton-Dickinson).

HeLa cells [3] = experiment: Inhibition of apoptosis by caspase inhibitor Z-VAD-fmk (cell survival); type: cell-based, human
Protocol: Apoptosis is predominantly caspase-mediated and can be blocked by Z-VAD-fmk whereas necrosis cannot.
Inhibition of apoptosis. HeLa cells were plated in 96-well microtiter plates at initial densities of 2,000 in 100 μL and were incubated for 72 hours before adding reagents. Cells were left untreated or were pre-treated with the caspase inhibitor Z-VAD-fmk for 3 hours (BACHEM N1510). A stock solution of 100 mM Z-VAD-fmk in DMSO was prepared and kept at −20° C. Working solution was freshly prepared by diluting the stock solution in fresh cell culture medium.

caspase 3/7 = experiment: Fluorogenic caspase activity determination (Apo-ONE caspase-3/7 assay); type: cell-based, human
Protocol: To confirm that the cells underwent necrosis instead of apoptosis applicant measured the caspase 3/7 activity (FIG. 4) using the fluorogenic substrate rhodamine 110 bis-(N-CBZ-L-aspartyl-L-glutamyl-L-valyl-aspartic acid amide), Z-DEVD-R110. Caspase 3/7 enzymes cleave carboxy-terminal to the aspartate in the DEVD peptide thus converting the substrate into fluorescent rhodamine. […] Thereafter caspase 3/7 activity declined until the end of the experiment at 48 hours.
Fluorogenic caspase activity determination. […] Cells were rinsed and 30 μL of medium containing 50 μM Au1.4MS was added. Untreated cells served as negative control and cells treated with 0.2 μM staurosporine served as a positive control. Apoptosis was measured using the fluorogenic caspase substrate, Apo-ONE® homogeneous caspase-3/7 assay (Promega) as described by the manufacturer. Briefly, Apo-ONE® stock solution (100fold working concentration) was […] in Apo-One® buffer and 30 μL of this was added to each well and incubated at 23° C. for 3 hours. 50 μL of the clear supernatant was transferred to a black microtiter plate and measured using a Fluorostar plate fluorometer (BMG Labtech, Offenburg, Germany) at excitation wavelength 485 nm and emission wavelength 520 nm.

HeLa cells [4] = experiment: Cell cycle and DNA content measurement using flow cytometry (propidium iodide); type: cell-based, human
Protocol: The protein p53 controls both the G2/M and the G1 cell cycle checkpoints and mediates reversible growth arrest in apoptotic fibroblasts (cf. M. Agarwal, A. Agarwal, W. Taylor, G. Stark, Proc Natl Acad Sci USA 1995, 92, 8493). To gain insight into the cell cycle progression in the context of Au1.4MS cytotoxicity, applicant measured the cellular DNA content and mitotic index of HeLa cells. […] Cells staining intermediary reside in S phase. When the HeLa cells were treated with staurosporine (curve 2) to trigger apoptosis the relative proportion of cells in G2 phase increased to 50% indicating a G2/M block of the cells. Together with the sub G1 peak and the low fluorescent peak indicating DNA fragments this pattern was typical of apoptosis. […] This is further corroborated by the fact that caspase activation, which is likewise a late event in apoptosis, but not in necrosis, was low in Au1.4MS treated cells and furthermore, that caspase inhibition by Z-VADfmk enhanced cell viability in staurosporine treated (apoptotic) cells, but not in Au1.4MS treated (secondary necrotic) cells (FIG. 4, 5).
Cell cycle and DNA content measurement using flow cytometry. HeLa cells were plated in 6-well plates and incubated for 72 hours before adding nanoparticles. […] 20,000 cells were analysed using FACSCalibur or FACSCanto flow cytometers and CELL-Quest software (Becton-Dickinson).

O=S(=O)([O-])c1cccc(P(c2ccccc2)c2ccccc2)c1.[Na+] [TPPMS, triphenylphosphine monosulfonate]
inhibition of the cytotoxicity of 100 μM Au1.4MS (HeLa cells [1]; HeLa, 48 hours, NAC 3 mM, others 1 mM): partially inhibit
cell survival (HeLa cells [1]; NAC 3 mM, others 1 mM): 11%
increase in intracellular fluorescence (ROS) (HeLa cells [2]; ligand alone, not shown): did not cause an increase in intracellular fluorescence

COC(=O)C[C@H](NC(=O)[C@H](C)NC(=O)[C@@H](NC(=O)OCc1ccccc1)C(C)C)C(=O)CF [Z-VAD-fmk] (Cbz-Val-Ala-Asp(OMe)-CH2F)
survival of staurosporin-treated HeLa cells after adding Z-VAD-fmk (HeLa cells [3]; 32 μM Z-VAD-fmk, 48 hours): 84% and 83%
survival of staurosporin-treated HeLa cells after adding Z-VAD-fmk (HeLa cells [3]; 500 μM Z-VAD-fmk, 48 hours): 90%
effect of Z-VAD-fmk on survival of Au1.4MS treated cells (HeLa cells [3]; HeLa cells): did not increase the survival; also recorded: did not increase cell survival

N[C@@H](CCC(=O)N[C@@H](CS)C(=O)NCC(=O)O)C(=O)O [GSH, glutathione]
inhibition of the cytotoxicity of 100 μM Au1.4MS (HeLa cells [1]): partially inhibit
cell survival (HeLa cells [1]; NAC 3 mM, others 1 mM): 15%

CC(=O)N[C@@H](CS)C(=O)O [NAC, N-acetylcysteine]
inhibition of the cytotoxicity of 100 μM Au1.4MS (HeLa cells [1]): partially inhibit
cell survival (HeLa cells [1]; NAC 3 mM, others 1 mM): 7%

OO [H2O2]
oxidative stress (intracellular ROS, CM-H2DCFDA fluorescence) (HeLa cells [2]; 0.3% for 30 minutes, positive control): strong oxidative stress; also recorded: strong ROS generation

CN[C@@H]1C[C@H]2O[C@@](C)([C@@H]1OC)n1c3ccccc3c3c4c(c5c6ccccc6n2c5c31)C(=O)NC4 [staurosporine]
cell survival (HeLa cells [3]; staurosporine alone, 48 hours): 47%
incubation time of peak caspase 3/7 activity (caspase 3/7; 0.2 μM staurosporine or 50 μM Au1.4MS): 12 h
Caspase 3/7 activity increase (caspase 3/7; 0.2 μM staurosporine, HeLa): 6.5 fold
intracellular caspase 3/7 activity increase over background (caspase 3/7; 0.2 μM staurosporine, within 6 hours): 6 fold
DNA content / cell cycle pattern (HeLa cells [4]; propidium iodide flow cytometry, 100 μM Au1.4MS): hypodiploid peak in DNA content typical of G2/M arrest and apoptosis
relative proportion of cells in G2 phase (HeLa cells [4]; staurosporine treated HeLa cells): 50%

O=C1O[C@H]([C@@H](O)CO)C(O)=C1O [ascorbic acid]
cell survival (HeLa cells [1]; NAC 3 mM, others 1 mM): 6%
